Results on ten compounds are retold here after patent publication US9957288B2, “Pyrabactin analogues to modulate plant development” (Universiteit Gent, priority 2014, dated 2018).

Series [1] concerns etiolated Arabidopsis thaliana seedlings.
The next series has as its system tobacco epidermal strips. As to the kind of experiment: Stomatal closure assay on epidermal strips. Format: cell-based, Nicotiana tabacum.
Series [2] concerns Arabidopsis thaliana seedlings.
The test system of series [3] is Arabidopsis thaliana Columbia (Col0) seedlings. As to the kind of experiment: Lateral root initiation (lateral roots + lateral root primordia, number and density). In kind it is in vivo.
Series [4] shares this test system. As to the kind of experiment: Primary root elongation of etiolated seedlings on compound medium. Format: in vivo.
Series [5] has as its system Arabidopsis thaliana seeds. Kind of series: Arabidopsis thaliana seed germination assay. In kind it is in vivo.
The subject of series [6] is Nicotiana benthamiana leaves. Kind of series: Leaf dehydration assay (weight loss of pre-treated detached leaves in dry air flow). In kind it is in vivo. To be noted: for % weight loss (average): average of 5-10 leaves, control 29.51%.
[7] abbreviates: 13 d old etiolated seedlings, 10 μM.

Entries after “also recorded” stand apart in the source; their conditions may differ. Read-outs that look alike come from different tables or passages of the source.

In series [1] (in vivo), `CCOP(=O)(OCc1ccccn1)c1ccccc1` (stereo not drawn) [Analogue D2, Ethyl (pyridin-2-ylmethyl) phenylphosphonate] registered an AR of 0. Besides, in the series on tobacco epidermal strips, the Stomata is on record as 0 and the “effect on stomatal aperture” value is given as “did not affect the size of the stomatal aperture”. The same compound had a Shoot in series [2] (in vivo) of 0. For the same compound, in series [3] (in vivo), the LR is 0, the “effect on LR+ LRP density (per cm primary root)” value (shortened to “effect … (per cm primary root)”) was “did not significantly affect the LR numbers” and the “effect on number of LR+ LRP (lateral root initiation)” value (“effect on number of LR+ LRP” below) is given as “did not have a significant effect”. In series [4] (in vivo), the PR stood at 0 and the “effect on primary root growth” value is listed as “did not show a significant effect”. Also, in series [5] (in vivo), the Seed germination turned out to be 0.
Consider `CCOP(=O)(NCc1ccncc1)c1ccc(Br)c2ccccc12` (stereo not drawn) [Analogue E7, Ethyl N-(pyridin-4-ylmethyl)-P-(4-bromonapht-1-yl)phosphonamidate], for which, in series [1] (in vivo), the AR entry is “+++” and the “effect on adventitious root formation” value is recorded as “reduction of adventitious root formation, respectively stronger or similar to pyrabactin”. In the series on tobacco epidermal strips, the Stomata is reported as 0 and the “effect on stomatal aperture” value is reported as “did not affect the size of the stomatal aperture”. In series [2] (in vivo), the Shoot entry is “+++” and the “effect on shoot development” value is “strong inhibition of the seedling's shoot development”. Further, in series [3] (in vivo), the LR entry was “+++”, the “LR+ LRP density” value is given as “around 5 LR+ LRP per cm primary root” and the “effect on number of LR+ LRP” value is listed as “strong inhibitors”. Also, in series [4] (in vivo), the PR result was “+++” and the “effect on primary root growth” value is on record as “strongly inhibited primary root growth”. The compound further had a Seed germination in series [5] (in vivo) of 0.
For `CC1=CC(=O)CC(C)(C)[C@@]1(O)/C=C/C(C)=C\C(=O)O` [ABA, Abscisic acid, reference compound], in series [1] (in vivo), the AR is listed as 0 and the “effect on adventitious root formation” value was “not affected”. Also, in the series on tobacco epidermal strips, the Stomata entry is on record as “+++”, the “effect on stomatal aperture” value is reported as “rapidly induces stomatal closure”, the relative stomatal aperture is on record as 40% and the “time to 50% of closure of stomata” value is ≤ 10 min. In addition, the Shoot entry in series [2] (in vivo) was “+++”. In series [3] (in vivo), the LR entry is recorded as “+++”, the “effect … (per cm primary root)” value was “reduced the number of roots per cm primary root” and the “effect on number of LR+ LRP” value is recorded as “strongly reduced the number of LR+ LRP”. In addition, the “% weight loss (average)” value in series [6] (leaves pre-treated with 10 μM) was 18.54%. In addition, the “% weight loss (average)” value in series [6] (leaves pre-treated with 100 μM) is on record as 16.99%. Further, the “effect on leaf weight loss / transpiration” value in series [6] (pre-treatment: ABA 10 and 100 μM, analogues 10 μM, 6 h dry air flow) is listed as “significantly less weight loss”. For the same compound, in series [4] (in vivo), the PR result was “+++” and the “reduction of primary root length” value is 5 fold. Also, in series [5] (in vivo), the Seed germination entry was “+++” and the “effect on seed germination” value is “inhibited seed germination stronger than pyrabactin”.
`CCOP(=O)(NCc1ccccc1)c1ccc(Br)c2ccccc12` (stereo not drawn) [Analogue E4, Ethyl N-(benzyl)-P-(4-bromonapht-1-yl)phosphonamidate]: in series [1] (in vivo), the AR result was “+++”; the “cellular toxicity (inhibitory effect on plant development)” value is “exhibits cellular toxicity at the concentration used”; the “effect on adventitious root formation” value is listed as “reduction of adventitious root formation, respectively stronger or similar to pyrabactin”. Also, in the series on tobacco epidermal strips, the Stomata entry is “++” and the “effect on stomatal aperture” value is given as “intermediate stomatal closure”. Further, in series [2] (in vivo), the Shoot entry is recorded as “+++” and the “effect on shoot development” value is recorded as “strong inhibition of the seedling's shoot development”. Moreover, in series [3] (in vivo), the LR entry is “+++”, the “effect … (per cm primary root)” value is listed as “strong density reduction (even stronger than ABA)” and the “effect on number of LR+ LRP” value was “strong inhibitors”. For the same compound, in series [4] (in vivo), the PR entry was “+++” and the “effect on primary root growth” value was “strongly inhibited primary root growth”. Further, in series [5] (in vivo), the Seed germination entry is reported as “+” and the “effect on seed germination” value was “did not inhibit the germination”.
Take `CCOP(=O)(NCc1cccnc1)c1ccc(Br)c2ccccc12` (stereo not drawn) [Analogue E3, Ethyl N-(pyridin-3-ylmethyl)-P-(4-bromonapht-1-yl)phosphonamidate]: the AR result in series [1] (in vivo) is listed as “−”. In the series on tobacco epidermal strips, the Stomata result is reported as “++” and the “effect on stomatal aperture” value is “intermediate stomatal closure”. For the same compound, the Shoot in series [2] (in vivo) amounted to 0. Moreover, in series [3] (in vivo), the LR result was “+”, the “effect … (per cm primary root)” value was “reduced the numbers of LR+ LRP similarly to ABA” and the “effect on number of LR+ LRP” value is reported as “modest to weak inhibitors of lateral root formation”. In addition, in series [4] (in vivo), the PR is reported as 0 and the “effect on primary root growth” value is “did not show a significant effect”. In series [5] (in vivo), this compound showed a Seed germination of 0.
Take `CCOP(=O)(Nc1cccnc1)c1ccccc1` (stereo not drawn) [Analogue D3, Ethyl N-(pyridin-3-yl)-P-(phenyl)phosphonamidate]: the AR in series [1] (in vivo) was 0. In the series with tobacco epidermal strips, the Stomata is 0 and the “effect on stomatal aperture” value was “intermediate stomatal closure”. For the same compound, in series [2] (in vivo), the Shoot is 0. In series [3] (in vivo), the LR is recorded as 0, the “effect … (per cm primary root)” value was “increased the LR density” and the “effect on number of LR+ LRP” value is “enhanced lateral root induction”. Also, in series [4] (in vivo), the PR was 0 and the “effect on primary root growth” value is recorded as “did not show a significant effect”. The same compound yielded a Seed germination in series [5] (in vivo) of 0.
Take `CCOP(=O)(NCc1ccccc1)c1ccc(F)c2ccccc12` (stereo not drawn) [Analogue E6, Ethyl N-(benzyl)-P-(4-fluoronapht-1-yl)phosphonamidate]: in series [1] (in vivo), the AR entry was “+++” and the “effect on adventitious root formation” value is on record as “reduction of adventitious root formation, respectively stronger or similar to pyrabactin”. In the series with tobacco epidermal strips, the Stomata entry is “+++” and the “effect on stomatal aperture” value is listed as “strongly induced stomatal closure”. Besides, in series [2] (in vivo), the Shoot entry is given as “++” and the “effect on shoot development” value is given as “inhibition of leaf size comparable with pyrabactin”. In addition, in series [3] (in vivo), the LR result is “+++”, the “effect … (per cm primary root)” value is given as “strong density reduction (even stronger than ABA)” and the “effect on number of LR+ LRP” value is given as “strong inhibitors”. In series [4] (in vivo), the PR result is “++” and the “effect on primary root growth” value is on record as “reducing the root growth comparable to pyrabactin”. Further, in series [5] (in vivo), the Seed germination was 0 and the “effect on seed germination” value is “did not inhibit the germination”.
In series [1] (in vivo), `CCOP(=O)(NCc1cccnc1)c1ccc(F)c2ccccc12` (stereo not drawn) [Analogue E5, Ethyl N-(pyridin-3-ylmethyl)-P-(4-fluoronapht-1-yl)phosphonamidate] returned an AR of 0. For the same compound, in the series with tobacco epidermal strips, the Stomata result is listed as “+” and the “effect on stomatal aperture” value is “intermediate stomatal closure”. This compound also registered a Shoot in series [2] (in vivo) of 0. In series [3] (in vivo), the LR entry is “+” and the “effect on number of LR+ LRP” value is “modest to weak inhibitors of lateral root formation”. For the same compound, in series [4] (in vivo), the PR result is on record as “+” and the “effect on primary root growth” value is “modest inhibitors of primary root elongation”. For the same compound, in series [5] (in vivo), the Seed germination result is reported as “+++” and the “effect on seed germination” value is recorded as “significant reduction of the percentage of germinating seeds”.
Consider `CCOP(=O)(NCc1ccccn1)c1ccc(F)c2ccccc12` (stereo not drawn) [Analogue E2, Ethyl N-(pyridin-2-ylmethyl)-P-(4-fluoronapht-1-yl)phosphonamidate], for which, in series [1] (in vivo), the AR entry is listed as “−” and the “effect on adventitious root formation” value is given as “stimulated AR formation”. For the same compound, in the series with tobacco epidermal strips, the Stomata entry is given as “+++”, the “stomata closure to % of the start opening” value is recorded as 50% and the “time to 50% of closure of stomata” value amounted to 30 min. In series [2] (in vivo), the Shoot result was “−” and the “effect on shoot development” value was “stimulated the development of leaves in comparison with the control”. For the same compound, in series [3] (in vivo), the LR result is “+”, the “effect … (per cm primary root)” value is given as “reduced the numbers of LR+ LRP similarly to ABA” and the “effect on number of LR+ LRP” value is “modest to weak inhibitors of lateral root formation”. In series [4] (in vivo), the PR came to 0 and the “effect on primary root growth” value was “did not show a significant effect”. Besides, the Seed germination in series [5] (in vivo) was determined as 0.
`O=S(=O)(NCc1ccccn1)c1ccc(Br)c2ccccc12` [Pyrabactin, pyrabactin]: the “effect on adventitious root formation” value in series [1] (10 μM) was “reduced the formation of these roots”. The AR entry in series [1] (adventitious root, 10 μM, compared with control not-treated seedlings) is reported as “+++”. The Stomata entry with tobacco epidermal strips (10 μM, compared with control not-treated epidermal strips) is reported as “+”. For the same compound, the “effect on stomatal aperture” value in the series with tobacco epidermal strips (10 μM, listed as pyrabactin) is “induced stomatal closure, rapidly but to a much lower degree than ABA; also recorded: demonstrated an effect on the stomata”. Further, in series [2] (10 μM), the “effect on shoot development” value is “leaf size was also significantly reduced”. Further, the Shoot result in series [2] (10 μM, compared with control not-treated seedlings) is listed as “++”. In addition, the “effect on shoot development” value in series [2] (10 μM, listed as pyrabactin) is “seedlings with a smaller shoot than control seedlings”. In addition, in series [3] (setting [7]), the “effect … (per cm primary root)” value was “significantly increased the LR+ LRP density” and the “effect on number of LR+ LRP” value is “only did moderately affect lateral root initiation”. Further, in series [3] (lateral root, 10 μM, compared with control not-treated seedlings), the LR result is “++”. The “reduction of primary root length” value in series [4] (10 μM) is reported as 2.5 fold. Further, the PR entry in series [4] (primary root, 10 μM, compared with control not-treated seedlings) is given as “++”. Further, the Seed germination result in series [5] (10 μM, compared with control not-treated seeds) is recorded as “++”. The “effect on seed germination” value in series [5] (different concentrations, gradual and dose-dependent) was “inhibited seed germination”.
